The record followed here is ChEMBL document CHEMBL4699525, “Design and synthesis of new indanol-1,2,3-triazole derivatives as potent antitubercular and antimicrobial agents” (Bioorg Med Chem Lett, 2020).

One data set relates to Bacillus subtilis. In words: Antibacterial activity against Bacillus subtilis assessed as inhibition of bacterial growth incubated for 24 hrs by agar well diffusion method. The class given is functional. Background: Agar diffusion results depend on both activity and mobility in agar.
A further data set relates to Pseudomonas aeruginosa. Kind of data set: Antibacterial activity against Pseudomonas aeruginosa assessed as inhibition of bacterial growth incubated for 24 hrs by agar well diffusion method. The class given is functional.
Data set [1] has as its system Candida albicans. Kind of data set: Antifungal activity against Candida albicans assessed as inhibition of fungal growth incubated for 24 hrs by agar well diffusion method. The data set is classed as functional.
Data set [2] addresses T1, Enoyl-[acyl-carrier-protein] reductase [NADH] (Mycobacterium tuberculosis) (UniProt P9WGR1).
T1 sequence (whole entry): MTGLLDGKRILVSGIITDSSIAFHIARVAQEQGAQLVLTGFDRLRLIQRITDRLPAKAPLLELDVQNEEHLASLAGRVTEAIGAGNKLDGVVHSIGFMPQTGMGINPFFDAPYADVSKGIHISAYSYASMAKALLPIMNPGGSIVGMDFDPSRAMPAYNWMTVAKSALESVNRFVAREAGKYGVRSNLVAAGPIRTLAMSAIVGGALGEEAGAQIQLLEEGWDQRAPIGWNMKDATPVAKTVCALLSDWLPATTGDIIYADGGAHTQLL
Kind of data set: Inhibition of InhA in Mycobacterium tuberculosis H37Rv assessed antitubercular activity by measuring inhibition of bacterial growth incubated for 7 days by MABA assay. As to conditions: time 7.0 day. For orientation: The colour change of resazurin is a common sign of viable cells or microbes.

In data set [3] the test system is Klebsiella aerogenes. In words: Antibacterial activity against Enterobacter aerogenes assessed as inhibition of bacterial growth incubated for overnight by CLSI based method. The class given is functional.
Data set [4] deals with Aspergillus niger. Kind of data set: Antifungal activity against Aspergillus niger assessed as inhibition of […] growth incubated for overnight by CLSI based method. The class given is functional.
The nature of data set [5]: Cytotoxicity against human HEK293 cells assessed as inhibition of cell growth at 25 uM incubated for 48 hrs by MTT assay. The data set is classed as cell-based. A general note: Tetrazolium assays rely on reduction of a dye to a coloured formazan, in cell work by metabolically active cells.
Data set [6] has as its system Candida albicans. In words: Antifungal activity against Candida albicans assessed as inhibition of […] growth incubated for overnight by CLSI based method. The data set is classed as functional.
In data set [7] the test system is Klebsiella aerogenes. Kind of data set: Antibacterial activity against Enterobacter aerogenes assessed as inhibition of bacterial growth incubated for 24 hrs by agar well diffusion method. The data set is classed as functional.
The subject of the next data set is Salmonella typhi. Kind of data set: Antibacterial activity against Salmonella typhi assessed as inhibition of bacterial growth incubated for 24 hrs by agar well diffusion method. The class given is functional, Salmonella enterica subsp. enterica serovar Typhi.
Data set [8] relates to Salmonella enterica subsp. enterica serovar Abony. In words: Antibacterial activity against Salmonella abony assessed as inhibition of bacterial growth incubated for 24 hrs by agar well diffusion method. The class given is functional.
The test system of data set [9] is Shigella boydii. Kind of data set: Antibacterial activity against Shigella boydii assessed as inhibition of bacterial growth incubated for overnight by CLSI based method. The class given is functional.
In a further data set the test system is Escherichia coli. Kind of data set: Antibacterial activity against Escherichia coli assessed as inhibition of bacterial growth incubated for 24 hrs by agar well diffusion method. The class given is functional.
The subject of data set [10] is Shigella boydii. In words: Antibacterial activity against Shigella boydii assessed as inhibition of bacterial growth incubated for 24 hrs by agar well diffusion method. The class given is functional.
The test system of the next data set is Bacillus cereus. In words: Antibacterial activity against Bacillus cereus assessed as inhibition of bacterial growth incubated for 24 hrs by agar well diffusion method. The data set is classed as functional.
Data set [11] concerns Saccharomyces cerevisiae. In words: Antifungal activity against Saccharomyces cerevisiae assessed as inhibition of fungal growth incubated for 24 hrs by agar well diffusion method. The data set is classed as functional.
For data set [12], the system named is Saccharomyces cerevisiae. Kind of data set: Antifungal activity against Saccharomyces cerevisiae assessed as inhibition of […] growth incubated for overnight by CLSI based method. The data set is classed as functional.
The test system of data set [13] is Staphylococcus aureus. Kind of data set: Antibacterial activity against Staphylococcus aureus assessed as inhibition of bacterial growth incubated for overnight by CLSI based method. The data set is classed as functional.
Data set [14] has as its system Staphylococcus aureus. In words: Antibacterial activity against Staphylococcus aureus assessed as inhibition of bacterial growth incubated for 24 hrs by agar well diffusion method. The class given is functional.
Data set [15] concerns Aspergillus niger. Kind of data set: Antifungal activity against Aspergillus niger assessed as inhibition of fungal growth incubated for 24 hrs by agar well diffusion method. The class given is functional.

Molecules are shown by their SMILES. Values after ≈ are worked out from the molar mass of the structure shown.

Usually inhibition stands for the drop in the measured response relative to a control, in per cent.

In the case of `Brc1ccccc1-n1cc(COc2ccc3c(c2)CCC3)nn1`, the “diameter of the inhibition zone (DIZ)” value with Bacillus subtilis was 10 mm; with Pseudomonas aeruginosa it was 13 mm; with Candida albicans [1], 9 mm; with Klebsiella aerogenes [7] it was 12 mm; in the data set on Salmonella typhi, 11 mm; in data set [8], 13 mm. Besides, the “diameter of the inhibition zone (DIZ)” value in the data set with Escherichia coli stood at 11 mm; with Shigella boydii [10] it was 12 mm; in the data set with Bacillus cereus, 9 mm; in the data set on Saccharomyces cerevisiae [11], 10 mm; with Staphylococcus aureus [14], 16 mm; in the data set on Aspergillus niger [15] it was 7 mm. Also, the MIC in [2] turned out to be 6.25 µM (≈ 2.31 µg/mL); in the data set with Klebsiella aerogenes [3] it was 120 µg/mL (≈ 324 µM); in the data set on Aspergillus niger [4] it was 170 µg/mL (≈ 459 µM); with Candida albicans [6], 130 µg/mL (≈ 351 µM); in the data set with Shigella boydii [9], 140 µg/mL (≈ 378 µM); in the data set with Saccharomyces cerevisiae [12], 110 µg/mL (≈ 297 µM). For the same molecule, in the data set with Staphylococcus aureus [13], the MIC is 90 µg/mL (≈ 243 µM). Besides, the inhibition at 48 h, 25 µM in [5] turned out to be 16.5%.

In the case of `Cc1ccc(-n2cc(COc3ccc4c(c3)CCC4)nn2)c(C)c1`, the “diameter of the inhibition zone (DIZ)” value is 10 mm in the data set on Bacillus subtilis; 13 mm in the data set on Pseudomonas aeruginosa; 11 mm in the data set with Candida albicans [1]; 10 mm with Klebsiella aerogenes [7]; 12 mm in the data set with Salmonella typhi; 9 mm in data set [8]. Besides, the “diameter of the inhibition zone (DIZ)” value worked out at 12 mm with Escherichia coli; 11 mm in the data set on Shigella boydii [10]; 10 mm in the data set with Bacillus cereus; 12 mm in the data set with Saccharomyces cerevisiae [11]; 7 mm in the data set with Staphylococcus aureus [14]; 10 mm with Aspergillus niger [15]. The MIC was 1.56 µM (≈ 0.498 µg/mL) in data set [2]; 75 µg/mL (≈ 235 µM) with Klebsiella aerogenes [3]; 70 µg/mL (≈ 219 µM) in the data set with Aspergillus niger [4]; 60 µg/mL (≈ 188 µM) in the data set on Candida albicans [6]; 55 µg/mL (≈ 172 µM) with Shigella boydii [9]; 50 µg/mL (≈ 157 µM) with Saccharomyces cerevisiae [12]. For the same molecule, in the data set with Staphylococcus aureus [13], the MIC was 150 µg/mL (≈ 470 µM). Moreover, the inhibition at 48 h, 25 µM in [5] turned out to be 19.9%.

Turning to `COc1ccc(-n2cc(COc3ccc4c(c3)CCC4)nn2)cc1`, the “diameter of the inhibition zone (DIZ)” value in the data set with Bacillus subtilis is 10 mm; in the data set with Pseudomonas aeruginosa, 12 mm; in the data set with Candida albicans [1] it was 11 mm; in the data set on Klebsiella aerogenes [7], 9 mm; in the data set with Salmonella typhi it was 8 mm; in data set [8], 12 mm. Besides, the “diameter of the inhibition zone (DIZ)” value in the data set on Escherichia coli amounted to 10 mm; with Shigella boydii [10], 11 mm; in the data set on Bacillus cereus it was 5 mm; in the data set on Saccharomyces cerevisiae [11], 5 mm; with Staphylococcus aureus [14], 8 mm; with Aspergillus niger [15], 6 mm. Moreover, the MIC in data set [2] was found to be 25 µM (≈ 8.03 µg/mL); in the data set with Klebsiella aerogenes [3] it was 130 µg/mL (≈ 405 µM); with Aspergillus niger [4], 180 µg/mL (≈ 560 µM); with Candida albicans [6], 80 µg/mL (≈ 249 µM); with Shigella boydii [9], 70 µg/mL (≈ 218 µM); with Saccharomyces cerevisiae [12] it was 210 µg/mL (≈ 653 µM). In addition, the MIC in the data set on Staphylococcus aureus [13] turned out to be 160 µg/mL (≈ 498 µM). Besides, the inhibition at 48 h, 25 µM in data set [5] worked out at 21.1%.

Consider `Cc1ccc([N+](=O)[O-])cc1-n1cc(COc2ccc3c(c2)CCC3)nn1`, for which the “diameter of the inhibition zone (DIZ)” value was 12 mm with Bacillus subtilis; 9 mm in the data set on Pseudomonas aeruginosa; 15 mm with Candida albicans [1]; 11 mm in the data set on Klebsiella aerogenes [7]; 11 mm in the data set with Salmonella typhi; 9 mm in [8]. The “diameter of the inhibition zone (DIZ)” value in the data set with Escherichia coli worked out at 11 mm; in the data set with Shigella boydii [10] it was 11 mm; in the data set with Bacillus cereus, 12 mm; with Saccharomyces cerevisiae [11] it was 6 mm; in the data set with Staphylococcus aureus [14] it was 13 mm; in the data set with Aspergillus niger [15] it was 6 mm. Moreover, the MIC in [2] is 12.5 µM (≈ 4.38 µg/mL); with Klebsiella aerogenes [3], 60 µg/mL (≈ 171 µM); in the data set with Aspergillus niger [4], 155 µg/mL (≈ 442 µM); in the data set with Candida albicans [6] it was 40 µg/mL (≈ 114 µM); in the data set with Shigella boydii [9] it was 60 µg/mL (≈ 171 µM); in the data set with Saccharomyces cerevisiae [12], 150 µg/mL (≈ 428 µM). For the same molecule, the MIC in the data set on Staphylococcus aureus [13] stood at 50 µg/mL (≈ 143 µM). For the same molecule, in data set [5], the inhibition at 48 h, 25 µM was 26.5%.

Consider `COc1ccccc1NC(=O)Cn1cc(COc2ccc3c(c2)CCC3)nn1`, for which the “diameter of the inhibition zone (DIZ)” value with Bacillus subtilis was found to be 10 mm; in the data set on Pseudomonas aeruginosa it was 8 mm; in the data set on Candida albicans [1], 12 mm; in the data set with Klebsiella aerogenes [7] it was 13 mm; with Salmonella typhi, 12 mm; in data set [8], 11 mm. The “diameter of the inhibition zone (DIZ)” value with Escherichia coli was 10 mm; in the data set on Shigella boydii [10], 12 mm; in the data set with Saccharomyces cerevisiae [11], 10 mm; in the data set with Staphylococcus aureus [14] it was 12 mm; with Aspergillus niger [15] it was 10 mm. Also, the MIC in data set [2] is 6.25 µM (≈ 2.37 µg/mL); in the data set on Klebsiella aerogenes [3], 95 µg/mL (≈ 251 µM); with Aspergillus niger [4], 170 µg/mL (≈ 449 µM); with Candida albicans [6], 180 µg/mL (≈ 476 µM); with Shigella boydii [9], 150 µg/mL (≈ 396 µM); in the data set with Saccharomyces cerevisiae [12], 210 µg/mL (≈ 555 µM). For the same molecule, the MIC with Staphylococcus aureus [13] was determined as 120 µg/mL (≈ 317 µM). Also, in data set [5], the inhibition at 48 h, 25 µM came out at 23.4%.
